Test results published in ChEMBL document CHEMBL1201862, “PubChem BioAssay data set” (2004).
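Tested at 5 concentrations; 48 h exposure; 96-well plates; endpoints linearly interpolated, else capped at highest concentration. Abbreviation: GI50, concentration required for 50% inhibition of growth.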 Activity calls are given as the source filed them. Rule as the data show it: active = GI50 up to about 1.1 µM and inactive = higher.

Experiments:
Assay in all cases: DTP human tumour cell line panel, 48 h
[1] = test system: ACHN
[2] = test system: SK-MEL-2
[3] = test system: SR
[4] = test system: SF-539
[5] = test system: SNB-75
[6] = test system: HL-60
[7] = test system: SNB-19
[8] = test system: SK-OV-3
[9] = test system: SF-268
[10] = test system: SK-MEL-5
[11] = test system: XF498
[12] = test system: SW-620
[13] = test system: UACC-257
[14] = test system: DMS-273
[15] = test system: OVCAR-8
[16] = test system: K562
[17] = test system: HCC 2998
[18] = test system: COLO 205
[19] = test system: LOX IMVI
[20] = test system: SK-MEL-28
[21] = test system: SNB-78
[22] = test system: CCRF-CEM
[23] = test system: A549
[24] = test system: DLD-1
[25] = test system: OVCAR-4
[26] = test system: HCT-116
[27] = test system: NCI-H460
[28] = test system: MOLT-4
[29] = test system: A498
[30] = test system: CAKI-1
[31] = test system: KM-20L2
[32] = test system: HT-29
[33] = test system: Malme-3M
[34] = test system: NCI-H522
[35] = test system: U-251
[36] = test system: RXF 393
[37] = test system: IGROV-1
[38] = test system: HOP-62
[39] = test system: OVCAR-3
[40] = test system: SN12C
[41] = test system: M14
[42] = test system: SF-295
[43] = test system: KM12
[44] = test system: UACC-62
[45] = test system: NCI-H23
[46] = test system: NCI-H226
[47] = test system: UO-31
[48] = test system: TK-10
[49] = test system: M19-MEL
[50] = test system: LXFL 529
[51] = test system: 786-0
[52] = test system: HOP-18
[53] = test system: EKVX
[54] = test system: MCF7
[55] = test system: HOP-92
[56] = test system: HCT-15
[57] = test system: OVCAR-5
[58] = test system: DMS-114
[59] = test system: NCI/ADR-RES
[60] = test system: RPMI-8226

Compound: Cc1ccc(C2=Nc3ccccc3[S+]([O-])C(c3ccc4c(c3)OCO4)C2)cc1 (stereo not drawn)
- GI50 [1]: 20.3 µM (inactive)
- GI50 [2]: 19 µM (inactive)
- GI50 [3]: 22.2 µM (inactive)
- GI50 [4]: 21.2 µM (inactive)
- GI50 [5]: 88.3 µM (inactive)
- GI50 [6]: 19.1 µM (inactive)
- GI50 [7]: 58.7 µM (inactive)
- GI50 [8]: 42.6 µM (inactive)
- GI50 [9]: 19.5 µM (inactive)
- GI50 [10]: 15 µM (inactive)
- GI50 [11]: 16.5 µM (inactive)
- GI50 [12]: 18.5 µM (inactive)
- GI50 [13]: 29.7 µM (inactive)
- GI50 [14]: 28.6 µM (inactive)
- GI50 [15]: 20.5 µM (inactive)
- GI50 [16]: 27.7 µM (inactive)
- GI50 [17]: > 10 µM (inactive)
- GI50 [18]: 29.6 µM (inactive)
- GI50 [19]: 15.9 µM (inactive)
- GI50 [20]: 24.5 µM (inactive)
- GI50 [21]: 24.7 µM (inactive)
- GI50 [22]: 26.2 µM (inactive)
- GI50 [23]: 28.6 µM (inactive)
- GI50 [24]: 12.3 µM (inactive)
- GI50 [25]: 29.3 µM (inactive)
- GI50 [26]: 16.6 µM (inactive)
- GI50 [27]: > 10 µM (inactive)
- GI50 [28]: 23.9 µM (inactive)
- GI50 [29]: 18.2 µM (inactive)
- GI50 [30]: 24.5 µM (inactive)
- GI50 [31]: 17.4 µM (inactive)
- GI50 [32]: 17.7 µM (inactive)
- GI50 [33]: 33.8 µM (inactive)
- GI50 [34]: 18.3 µM (inactive)
- GI50 [35]: 13 µM (inactive)
- GI50 [36]: 16.9 µM (inactive)
- GI50 [37]: 34.8 µM (inactive)
- GI50 [38]: 39.4 µM (inactive)
- GI50 [39]: 27.7 µM (inactive)
- GI50 [40]: 17.4 µM (inactive)
- GI50 [41]: 17.6 µM (inactive)
- GI50 [42]: 40.1 µM (inactive)
- GI50 [43]: 18.2 µM (inactive)
- GI50 [44]: 18.3 µM (inactive)
- GI50 [45]: 15.3 µM (inactive)
- GI50 [46]: 52.6 µM (inactive)
- GI50 [47]: 40.8 µM (inactive)
- GI50 [48]: 44.7 µM (inactive)
- GI50 [49]: 27 µM (inactive)
- GI50 [50]: > 10 µM (inactive)
- GI50 [51]: 19.9 µM (inactive)
- GI50 [52]: > 100 µM (inactive)
- GI50 [53]: 52 µM (inactive)

Compound: C=C1C(=O)O[C@@H]2[C@H](O)[C@@H](C)[C@@H]3C=CC(=O)[C@@]3(C)[C@@H](OC(=O)/C(C)=C/C)[C@H]12
- GI50 [2]: 0.557 µM (active)
- GI50 [4]: 0.468 µM (active)
- GI50 [5]: 2.03 µM (inactive)
- GI50 [6]: 0.355 µM (active)
- GI50 [7]: 2.77 µM (inactive)
- GI50 [8]: 2.39 µM (inactive)
- GI50 [9]: 0.437 µM (active)
- GI50 [10]: 1.18 µM (inactive)
- GI50 [54]: 0.518 µM (active)
- GI50 [11]: 0.471 µM (active)
- GI50 [55]: 0.548 µM (active)
- GI50 [12]: 0.483 µM (active)
- GI50 [13]: 0.718 µM (active)
- GI50 [14]: 0.451 µM (active)
- GI50 [15]: 0.723 µM (active)
- GI50 [16]: 0.483 µM (active)
- GI50 [17]: 0.656 µM (active)
- GI50 [56]: 0.377 µM
- GI50 [57]: 3.81 µM (inactive)
- GI50 [18]: 0.344 µM (active)
- GI50 [19]: 0.869 µM (active)
- GI50 [20]: 0.344 µM (active)
- GI50 [21]: 0.871 µM (active)
- GI50 [22]: 0.254 µM (active)
- GI50 [23]: 1.98 µM (inactive)
- GI50 [24]: 0.728 µM (active)
- GI50 [25]: 1.35 µM (inactive)
- GI50 [26]: 0.3 µM (active)
- GI50 [27]: 0.412 µM (active)
- GI50 [58]: 0.498 µM (active)
- GI50 [28]: 0.344 µM (active)
- GI50 [29]: 1.32 µM (inactive)
- GI50 [59]: 0.811 µM (active)
- GI50 [30]: 0.782 µM (active)
- GI50 [31]: 1.75 µM (inactive)
- GI50 [32]: 0.745 µM (active)
- GI50 [33]: 0.914 µM (active)
- GI50 [34]: 0.0889 µM (active)
- GI50 [35]: 0.733 µM (active)
- GI50 [36]: 0.63 µM (active)
- GI50 [37]: 0.459 µM (active)
- GI50 [60]: 0.344 µM (active)
- GI50 [38]: 7.46 µM (inactive)
- GI50 [39]: 0.719 µM (active)
- GI50 [40]: 0.465 µM (active)
- GI50 [42]: 3.75 µM (inactive)
- GI50 [43]: 1.01 µM (active)
- GI50 [44]: 0.342 µM (active)
- GI50 [45]: 0.845 µM (active)
- GI50 [46]: 1.12 µM (inactive)
- GI50 [47]: 5.31 µM (inactive)
- GI50 [49]: 0.363 µM (active)
- GI50 [52]: 1.9 µM (inactive)
- GI50 [53]: 0.774 µM (active)

Compound: Cc1cc2c(C)n[nH]c2c(C(=O)O)c1C
- GI50 [1]: > 100 µM (inactive)
- GI50 [2]: > 100 µM (inactive)
- GI50 [3]: > 100 µM (inactive)
- GI50 [4]: > 100 µM (inactive)
- GI50 [5]: > 100 µM (inactive)
- GI50 [6]: > 100 µM (inactive)
- GI50 [7]: > 100 µM (inactive)
- GI50 [11]: > 100 µM (inactive)
- GI50 [55]: < 0.01 µM (active)
- GI50 [12]: > 100 µM (inactive)
- GI50 [13]: > 100 µM (inactive)
- GI50 [14]: > 100 µM (inactive)
- GI50 [15]: > 100 µM (inactive)
- GI50 [16]: > 100 µM (inactive)
- GI50 [17]: > 100 µM (inactive)
- GI50 [56]: > 100 µM
- GI50 [18]: > 100 µM (inactive)
- GI50 [20]: > 100 µM (inactive)
- GI50 [21]: 36.2 µM (inactive)
- GI50 [22]: > 100 µM (inactive)
- GI50 [23]: > 100 µM (inactive)
- GI50 [24]: > 100 µM (inactive)
- GI50 [25]: 51.6 µM (inactive)
- GI50 [26]: > 100 µM (inactive)
- GI50 [27]: > 100 µM (inactive)
- GI50 [58]: > 100 µM (inactive)
- GI50 [28]: > 100 µM (inactive)
- GI50 [29]: > 100 µM (inactive)
- GI50 [30]: > 100 µM (inactive)
- GI50 [31]: > 100 µM (inactive)
- GI50 [32]: > 100 µM (inactive)
- GI50 [35]: > 100 µM (inactive)
- GI50 [36]: > 100 µM (inactive)
- GI50 [37]: > 100 µM (inactive)
- GI50 [60]: > 100 µM (inactive)
- GI50 [38]: > 100 µM (inactive)
- GI50 [39]: > 100 µM (inactive)
- GI50 [40]: > 100 µM (inactive)
- GI50 [42]: > 100 µM (inactive)
- GI50 [43]: > 100 µM (inactive)
- GI50 [44]: > 100 µM (inactive)
- GI50 [45]: 85.7 µM (inactive)
- GI50 [47]: 85.5 µM (inactive)
- GI50 [49]: > 100 µM (inactive)
- GI50 [50]: > 100 µM (inactive)
- GI50 [51]: > 100 µM (inactive)
- GI50 [53]: > 100 µM (inactive)

Compound: COc1cc2c(cc1O)N=C[C@@H]1CC[C@@H](O)N1C2=O.COc1cc2c(cc1O)N=C[C@@H]1CC[C@H](O)N1C2=O
- GI50 [2]: 0.433 µM (active)
- GI50 [4]: 0.726 µM (active)
- GI50 [5]: 1.02 µM (active)
- GI50 [6]: 0.897 µM (active)
- GI50 [7]: 1.4 µM (inactive)
- GI50 [8]: 4.41 µM (inactive)
- GI50 [9]: 0.735 µM (active)
- GI50 [10]: 0.583 µM (active)
- GI50 [54]: 0.946 µM (active)
- GI50 [11]: 0.48 µM (active)
- GI50 [55]: 0.752 µM (active)
- GI50 [12]: 0.652 µM (active)
- GI50 [13]: 1.6 µM (inactive)
- GI50 [14]: 5.48 µM (inactive)
- GI50 [15]: 1.05 µM (active)
- GI50 [16]: 0.849 µM (active)
- GI50 [17]: 0.863 µM (active)
- GI50 [56]: 0.74 µM
- GI50 [57]: 2.99 µM (inactive)
- GI50 [18]: 0.738 µM (active)
- GI50 [19]: 0.473 µM (active)
- GI50 [20]: 0.977 µM (active)
- GI50 [21]: 0.631 µM (active)
- GI50 [22]: 0.369 µM (active)
- GI50 [23]: 5.6 µM (inactive)
- GI50 [24]: 1 µM (active)
- GI50 [25]: 3.55 µM (inactive)
- GI50 [26]: 1.32 µM (inactive)
- GI50 [27]: 2.54 µM (inactive)
- GI50 [58]: 0.522 µM (active)
- GI50 [28]: 0.615 µM (active)
- GI50 [29]: 0.43 µM (active)
- GI50 [59]: 0.855 µM (active)
- GI50 [30]: 0.607 µM (active)
- GI50 [31]: 1.72 µM (inactive)
- GI50 [32]: 2.17 µM (inactive)
- GI50 [33]: 0.597 µM (active)
- GI50 [34]: 0.159 µM (active)
- GI50 [35]: 0.635 µM (active)
- GI50 [36]: 0.281 µM (active)
- GI50 [37]: 1.83 µM (inactive)
- GI50 [60]: 0.527 µM (active)
- GI50 [38]: 0.631 µM (active)
- GI50 [39]: 0.561 µM (active)
- GI50 [40]: 1.04 µM (active)
- GI50 [42]: 0.984 µM (active)
- GI50 [43]: 1.38 µM (inactive)
- GI50 [44]: 0.627 µM (active)
- GI50 [45]: 0.916 µM (active)
- GI50 [46]: 0.525 µM (active)
- GI50 [47]: 0.579 µM (active)
- GI50 [49]: 1.2 µM (inactive)
- GI50 [52]: 0.863 µM (active)
- GI50 [53]: 1.87 µM (inactive)
